Experimental data reported in PMC7753147, “High-throughput determination of protein affinities using unmodified peptide libraries in nanomolar scale” (iScience, 2020).

What was measured:
[1] = system: FL-geph; experiment: µSPOT peptide microarray binding assay with full-length geph
[2] = system: gephE; experiment: µSPOT peptide microarray binding assay with recombinant gephE
[3] = system: native geph; experiment: µSPOT peptide microarray binding assay with native geph from mouse brain lysate
[4] = µSPOT full positional scan of GlyRβ 15-mer DLRSNDFSIVGSLPR, intensity normalised to wild-type sequence (= 1)
[5] = µSPOT full positional scan of GlyRβ 15-mer DLRSNDFSIVGSLPR, native geph, intensity normalised to wild-type sequence (= 1)
[6] = µSPOT peptide microarray, GlyRβ full positional scan, intensity normalised to wild-type sequence DLRSNDFSIVGSLPR (=1)
[7] = µSPOT peptide microarray, GlyRβ full positional scan, recombinant gephE, intensity normalised to wild-type sequence DLRSNDFSIVGSLPR (=1)
[8] = µSPOT peptide microarray, GlyRβ full positional scan, native geph from mouse brain lysate, intensity normalised to wild-type sequence DLRSNDFSIVGSLPR (=1)

| Sequence | Fl-geph Binding Intensity [norm.] [1, 4] [norm.] | gephE Binding Intensity [norm.] [2, 4] [norm.] | Native geph Binding Intensity [norm.] [3, 5] [norm.] | Fl-geph Binding Intensity [norm.] [1, 6] [norm.] | gephE Binding Intensity [norm.] [2, 7] [norm.] | Native geph Binding Intensity [norm.] [3, 8] [norm.] |
| --- | --- | --- | --- | --- | --- | --- |
| DLRSNDFSIVGSLER [GlyRβ_Full_Positional_Scan_271] | 0.75 | 0.32 | 0.28 |  |  |  |
| DLRSNDFCIVGSLPR [GlyRβ_Full_Positional_Scan_157, GlyR β 414-428 variant S421C] |  |  |  | 0.71 | 0.66 | 0.36 |
| DLRSNDVSIVGSLPR [GlyRβ_Full_Positional_Scan_126, GlyR β 414-428 variant F420V] |  |  |  | 0.76 | 0.52 | 0.38 |
| DLRSNDFSIVGSSPR [GlyRβ_Full_Positional_Scan_255] | 1.08 | 0.84 | 0.85 |  |  |  |
| DLRSNDFIIVGSLPR [GlyRβ_Full_Positional_Scan_143, GlyR β 414-428 variant S421I] |  |  |  | 0.41 | 0.4 | 0.18 |
| DLRSNDFSIVISLPR [GlyRβ_Full_Positional_Scan_203, GlyR β 414-428 variant G424I] |  |  |  | 0.52 | 0.48 | 0.29 |
| DLRSNDFSIVGSLPF [GlyRβ_Full_Positional_Scan_287] | 0.64 | 1.01 | 0.79 |  |  |  |
| DLRSNDRSIVGSLPR [GlyRβ_Full_Positional_Scan_132, GlyR β 414-428 variant F420R] |  |  |  | 0.77 | 0.63 | 0.41 |
| DLRSNDMSIVGSLPR [GlyRβ_Full_Positional_Scan_138, GlyR β 414-428 variant F420M] |  |  |  | 0.51 | 0.43 | 0.32 |
| DLCSNDFSIVGSLPR [GlyRβ_Full_Positional_Scan_057] |  |  |  | 1.14 | 0.88 | 1.41 |
| VLRSNDFSIVGSLPR [GlyRβ_Full_Positional_Scan_006] |  |  |  | 1.18 | 1.05 | 0.8 |
| DLRCNDFSIVGSLPR [GlyRβ_Full_Positional_Scan_077] |  |  |  | 0.65 | 0.99 | 0.77 |
| DLRSNDFSIVGDLPR [GlyRβ_Full_Positional_Scan_230] | 0.77 | 0.52 | 0.45 |  |  |  |
| DLRSNDFSIVGSLPS [GlyRβ_Full_Positional_Scan_295] | 1.3 | 0.82 | 1.3 |  |  |  |
| DLRSNDFSIVGALPR [GlyRβ_Full_Positional_Scan_221] | 1.04 | 0.77 | 0.99 |  |  |  |
| DLRSNDFSIVKSLPR [GlyRβ_Full_Positional_Scan_214, GlyR β 414-428 variant G424K] | 0.44 | 0.5 | 0.17 |  |  |  |
| DLRSNDFSIVGSLQR [GlyRβ_Full_Positional_Scan_280] | 0.77 | 0.53 | 0.41 |  |  |  |
| DLRSADFSIVGSLPR [GlyRβ_Full_Positional_Scan_081] |  |  |  | 0.9 | 0.93 | 0.76 |

| Sequence | Fl-geph Binding Intensity [norm.] [1, 4] [norm.] | gephE Binding Intensity [norm.] [2, 4] [norm.] | Native geph Binding Intensity [norm.] [3, 5] [norm.] | Fl-geph Binding Intensity [norm.] [1, 6] [norm.] | gephE Binding Intensity [norm.] [2, 7] [norm.] | Native geph Binding Intensity [norm.] [3, 8] [norm.] |
| --- | --- | --- | --- | --- | --- | --- |
| DLRSYDFSIVGSLPR [GlyRβ_Full_Positional_Scan_089] |  |  |  | 0.76 | 0.89 | 0.68 |
| DLRSNDFSIVGNLPR [GlyRβ_Full_Positional_Scan_239] | 1.17 | 0.74 | 1.16 |  |  |  |
| DLRSNDFSIHGSLPR [GlyRβ_Full_Positional_Scan_193, GlyR β 414-428 variant V423H] |  |  |  | 0.46 | 0.32 | 0.2 |
| DLRSNDFSIVRSLPR [GlyRβ_Full_Positional_Scan_212, GlyR β 414-428 variant G424R] | 0.6 | 0.57 | 0.17 |  |  |  |
| DLRSNDFSWVGSLPR [GlyRβ_Full_Positional_Scan_168, GlyR β 414-428 variant I422W] |  |  |  | 0.67 | 0.59 | 0.2 |
| DLRSNDFSIVTSLPR [GlyRβ_Full_Positional_Scan_216, GlyR β 414-428 variant G424T] | 0.47 | 0.49 | 0.28 |  |  |  |
| DLRSNDFSISGSLPR [GlyRβ_Full_Positional_Scan_195, GlyR β 414-428 variant V423S] |  |  |  | 0.64 | 0.41 | 0.3 |
| DLRSNDFSIVGSGPR [GlyRβ_Full_Positional_Scan_242] | 0.91 | 0.69 | 0.66 |  |  |  |
| DLRSNDFSGVGSLPR [GlyRβ_Full_Positional_Scan_162, GlyR β 414-428 variant I422G] |  |  |  | 0.53 | 0.56 | 0.34 |
| DLRKNDFSIVGSLPR [GlyRβ_Full_Positional_Scan_074] |  |  |  | 0.94 | 0.92 | 1.05 |
| DLRSNDFSIVGSLIR [GlyRβ_Full_Positional_Scan_263] | 0.95 | 0.65 | 0.49 |  |  |  |
| DHRSNDFSIVGSLPR [GlyRβ_Full_Positional_Scan_033] |  |  |  | 0.95 | 0.91 | 0.98 |
| DLRSNDFSIGGSLPR [GlyRβ_Full_Positional_Scan_182, GlyR β 414-428 variant V423G] |  |  |  | 0.56 | 0.48 | 0.27 |
| DLRSNDLSIVGSLPR [GlyRβ_Full_Positional_Scan_124, GlyR β 414-428 variant F420L] |  |  |  | 0.69 | 0.58 | 0.44 |
| DLRSNDFSILGSLPR [GlyRβ_Full_Positional_Scan_184, GlyR β 414-428 variant V423L] |  |  |  | 0.66 | 0.39 | 0.23 |
| DLRSNDFSIVGSLPR [GlyRβ_Full_Positional_Scan_235] | 1 | 1 | 1 |  |  |  |
| DLRSNPFSIVGSLPR [GlyRβ_Full_Positional_Scan_105] |  |  |  | 0.85 | 0.89 | 0.58 |
| DLRSNDFSIVGSLPD [GlyRβ_Full_Positional_Scan_290] | 1.21 | 0.96 | 0.66 |  |  |  |
